Measured values from ChEMBL document CHEMBL4828773, “Novel HDAC1 and HDAC2 Inhibitors for Treating Diseases” (ACS Med Chem Lett, 2021).

Tests used:
[1] = molecular target: Histone deacetylase 2 (Homo sapiens, UniProt Q92769); test: Inhibition of human HDAC2 preincubated for 10 mins followed by tripeptide substrate addition and measured after 60 mins by fluorescence microplate reader assay
[2] = molecular target: Histone deacetylase 1 (Homo sapiens, UniProt Q13547); test: Inhibition of HDAC1 (unknown origin) preincubated for 10 mins followed by tripeptide substrate addition and measured after 60 mins by fluorescence microplate reader assay
Histone deacetylase 1, sequence (Q13547 whole entry): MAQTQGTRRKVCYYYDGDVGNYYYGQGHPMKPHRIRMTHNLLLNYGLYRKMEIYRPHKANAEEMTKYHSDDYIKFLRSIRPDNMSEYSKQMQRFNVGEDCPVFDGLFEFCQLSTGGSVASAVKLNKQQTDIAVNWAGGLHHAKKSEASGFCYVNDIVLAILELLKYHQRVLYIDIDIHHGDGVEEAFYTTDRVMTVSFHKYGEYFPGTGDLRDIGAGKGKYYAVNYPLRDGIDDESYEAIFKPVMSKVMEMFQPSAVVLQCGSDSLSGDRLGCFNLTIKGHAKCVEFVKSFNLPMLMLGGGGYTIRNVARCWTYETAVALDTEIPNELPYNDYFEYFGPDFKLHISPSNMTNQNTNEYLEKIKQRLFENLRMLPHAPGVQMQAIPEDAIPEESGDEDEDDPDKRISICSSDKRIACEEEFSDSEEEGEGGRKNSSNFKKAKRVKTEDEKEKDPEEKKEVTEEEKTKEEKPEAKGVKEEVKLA

Histone deacetylase 2, sequence (Q92769 whole entry): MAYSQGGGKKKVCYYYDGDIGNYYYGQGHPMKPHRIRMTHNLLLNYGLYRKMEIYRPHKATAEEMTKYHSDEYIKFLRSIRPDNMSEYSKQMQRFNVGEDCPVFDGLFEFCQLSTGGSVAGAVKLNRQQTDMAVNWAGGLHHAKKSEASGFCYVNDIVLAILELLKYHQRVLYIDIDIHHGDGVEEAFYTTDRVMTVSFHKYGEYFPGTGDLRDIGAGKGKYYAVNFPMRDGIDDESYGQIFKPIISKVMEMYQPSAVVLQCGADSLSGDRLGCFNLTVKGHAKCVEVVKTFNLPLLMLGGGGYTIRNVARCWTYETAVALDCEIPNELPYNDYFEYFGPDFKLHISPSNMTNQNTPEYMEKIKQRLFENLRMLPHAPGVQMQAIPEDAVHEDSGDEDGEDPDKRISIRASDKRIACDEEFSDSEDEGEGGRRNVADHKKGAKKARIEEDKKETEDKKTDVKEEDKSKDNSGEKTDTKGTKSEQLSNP

IC50 [1] [nM]	IC50 [2] [nM]	SMILES
15		CN(C)CCN(C)c1ccc2cc(C(=O)Nc3cc(-c4cccs4)ccc3N)cnc2c1
5	1	Nc1ccc(-c2cccs2)cc1NC(=O)c1ccc2c(c1)CC(=O)N2CCCN1CCOCC1
10	1	Nc1ccc(-c2ccccc2)cc1NC(=O)c1ccc2c(c1)ncn2CCN1CCOCC1
10	5	CN1C(=O)Cc2cc(C(=O)Nc3cc(-c4cccs4)ccc3N)ccc21
5		CN(C)CCNc1ccc2cc(C(=O)Nc3cc(-c4cccs4)ccc3N)ncc2c1

SMILES	IC50 [1] [nM]	IC50 [2] [nM]
Nc1ccc(-c2cccs2)cc1NC(=O)c1ccc2c(c1)CC(=O)N2CCN1CCOCC1	5	1
